The source of these data is publication PMC11877530, “Heterologous Expression and Characterization of Estercin A, a Class II Lanthipeptide Derived from Clostridium estertheticum CF016, with Antimicrobial Activity against Clinically Relevant Pathogens” (Journal of Natural Products, 2025).

Converted amounts (≈) assume the structure as drawn.

In one series the test system is Gram-positive strains. Format: cell-based.
Series [1] can be described thus: Spot-on-lawn-based lipid II binding (competition) assay. Also noted: species or system Lactococcus lactis. To be noted: spot-on-lawn on L. lactis MG1363 GM17 agar; estercin A 8 μg spotted adjacent to lipid II (300 μM, 3 μL); nisin positive, daptomycin negative control. As for the experimental part:
The binding of the peptides to pure lipid II ([…]) was tested by the spot-on-the- lawn assay. Here, nisin and daptomycin were used for comparison.[51]

Series [2] deals with L. lactis MG1363. Nature of the series: Fluorescence microscopy assay (SYTO-9/PI) for membrane pore formation. Format: cell-based, Lactococcus lactis. The note with it: L. lactis MG1363, peptide at 2-fold MIC, SYTO-9 and 5 μM PI, 15 min room temperature. As for the experimental part:
An overnight culture of L. lactis MG1363 was added to the GM17 broth to a final concentration of 1% (v/v) and grown to an OD600 of 0.8. The culture was centrifuged at 6,000 rpm for 5 min and washed three times in the MHB medium. […] Simultaneously, 5 μM PI and SYTO 9 were added to the samples. After incubation at room temperature for 15 min, the samples were centrifuged, and the supernatant was removed. And the cells were washed three times with MHB. After that, the harvest cells were loaded on 1.5% agarose pads and analyzed by a DeltaVision Elite microscope (Applied Precision).

Series [3] has as its system L. lactis MG1363. Nature of the series: Time killing assay. Format: cell-based, Lactococcus lactis. To be noted: L. lactis MG1363, 5 × 10^5 CFU/mL, 10-fold the MIC, GM17, 30 °C, CFU counts, triplicate. As for the experimental part: Time-killing assays were conducted according to the previously described protocol.[57] Briefly, an overnight culture of L. lactis MG1363 was diluted 50-fold in GM17 and incubated at 30 °C. The cells were grown for about 3 h to an OD600 of 0.5, and then the cell concentration was adjusted to 5 × 10^5 CFU/mL. […] Untreated cells were used as a control. At predetermined time points, 50 μL was taken from each sample, and undiluted and 10-fold serially diluted suspensions were plated on GM17 agar plates. After the overnight incubation at 30 °C, the colonies on the plates were counted and then calculated as the colony-forming units per milliliter. The experiment was carried out in triplicate.

A short description of series [4]: Thermal stability (remaining antimicrobial activity). The series is classed as physicochemical. To be noted: 4 h at 95 °C; read-out antimicrobial activity on L. lactis MG1363 agar; three biological replicates.
Series [5] deals with Lactococcus lactis MG1363. To be noted: 18 h.
The subject of series [6] is Listeria monocytogenes LMG10470. To be noted: LMG10470, 18 h.
The test system of series [7] is Staphylococcus aureus LMG10147. To be noted: LMG10147, 18 h.
For series [8], the system named is Staphylococcus aureus LMG15975 (MRSA). The note with it: LMG15975, 18 h.
Series [9] has as its system Enterococcus faecalis LMG16216 (VRE). The note with it: LMG16216, 18 h.
Series [10] relates to Enterococcus faecium LMG16003 (VRE). The note with it: LMG16003, 18 h.
Series [11] has as its system Bacillus cereus ATCC14579. To be noted: ATCC14579, 18 h.
For series [12], the system named is Clostridium botulinum CECT551. To be noted: Reinforced Clostridium Medium, Coy Anaerobic Chamber, 18 h, 37 °C, three biological replicates.
Series [13] concerns Clostridium perfringens CECT376. The note with it: Reinforced Clostridium Medium, Coy Anaerobic Chamber, 18 h, 37 °C, three biological replicates.
Series [14] deals with Clostridium tetani CECT4629. The note with it: Reinforced Clostridium Medium, Coy Anaerobic Chamber, 18 h, 37 °C, three biological replicates.
A short description of series [15]: pH stability (remaining antimicrobial activity). To be noted: pH 2, 4, 7 or 10 adjusted with HCl or NaOH; read-out antimicrobial activity on L. lactis MG1363 agar; three biological replicates.
In another series the test system is C. perfringens. The note with it: reported value, ref not given; cited from earlier work.

Consider `C=C1NC(=O)[C@H](C(C)C)NC(=O)C2CSC[C@@H](C(=O)N[C@@H](CCCCN)C(=O)O)NC(=O)[C@H](CSC(C)C3NC(=O)[C@H](Cc4ccccc4)NC(=O)C(NC(=O)[C@@H](NC(=O)[C@@H](NC(=O)[C@@H](NC(=O)CNC(=O)CNC(=O)CN)C(C)C)[C@@H](C)CC)[C@@H](C)O)C(C)SC[C@H](NC(=O)[C@H](CCC(=O)O)NC(=O)[C@H](Cc4c[nH]cn4)NC3=O)C(=O)N[C@@H](Cc3ccc(O)cc3)C(=O)N[C@@H](Cc3ccc(O)cc3)C(=O)N[C@@H](CC(N)=O)C(=O)N2)NC(=O)CNC(=O)CNC(=O)[C@H](Cc2c[nH]c3ccccc23)NC(=O)[C@H](CO)NC(=O)[C@H](C)NC(=O)[C@@H]2CCCN2C1=O` (some centres unmarked) [estercin A], for which the “Antimicrobial activity against selected Gram-positive strains” value in the series with Gram-positive strains is recorded as “broad spectrum of activity”. Also, the “Lipid II binding” value in series [1] was “binds to lipid II”. In the series on L. lactis MG1363 [2], the Membrane pore-forming ability result is on record as “cannot form pores on the membrane of target cells”. Also, the Rate of killing entry with L. lactis MG1363 [3] is on record as “slower rate of killing”. For the same compound, in [4], the “Reduction of antimicrobial activity after 95 °C exposure” value is listed as “less than 30%”. For the same compound, the minimum inhibitory concentration (MIC) was 4 µg/mL (≈ 1.45 µM) in series [5]; above 64 µg/mL in series [6]; 16 µg/mL (≈ 5.81 µM) in [7]; 4 µg/mL (≈ 1.45 µM) in series [8]; 64 µg/mL (≈ 23.2 µM) in [9]; 64 µg/mL (≈ 23.2 µM) in series [10]. The minimal inhibitory concentration (MIC) in series [11] was 8 µg/mL (≈ 2.91 µM); in series [12], 32 µg/mL (≈ 11.6 µM); in series [13] it was 1 µg/mL (≈ 0.363 µM); in series [14], 4 µg/mL (≈ 1.45 µM). In addition, the “pH stability: activity retained after incubation” value in [15] is given as “retained most of their activity”.
Consider ruminococcin A, for which the MIC in the series on C. perfringens is 75 µg/mL.
